Source: patent publication US20100168102A9, “Amide Derivatives as Kinase Inhibitors” (Devgen NV, priority 2005, published 2010)

Tests used:
[1] = molecular target: T1, human ROCKα/ROCKII mix (Homo sapiens, UniProt O75116); test: Biochemical assay for ROCK (fluorescence polarization, ROCK IMAP Kit)
T1 construct: purchased Upstate Biotechnology 14-451

[2] = molecular target: T2, PKC epsilon (Homo sapiens, UniProt Q02156); test: Biochemical assay for PKC epsilon (fluorescence polarization, Protein Kinase C Assay Kit, Red); conditions: read-out: IC50 μM PKCε
T2 construct: purchased Invitrogen P2282
T2 sequence (Q02156 1-737): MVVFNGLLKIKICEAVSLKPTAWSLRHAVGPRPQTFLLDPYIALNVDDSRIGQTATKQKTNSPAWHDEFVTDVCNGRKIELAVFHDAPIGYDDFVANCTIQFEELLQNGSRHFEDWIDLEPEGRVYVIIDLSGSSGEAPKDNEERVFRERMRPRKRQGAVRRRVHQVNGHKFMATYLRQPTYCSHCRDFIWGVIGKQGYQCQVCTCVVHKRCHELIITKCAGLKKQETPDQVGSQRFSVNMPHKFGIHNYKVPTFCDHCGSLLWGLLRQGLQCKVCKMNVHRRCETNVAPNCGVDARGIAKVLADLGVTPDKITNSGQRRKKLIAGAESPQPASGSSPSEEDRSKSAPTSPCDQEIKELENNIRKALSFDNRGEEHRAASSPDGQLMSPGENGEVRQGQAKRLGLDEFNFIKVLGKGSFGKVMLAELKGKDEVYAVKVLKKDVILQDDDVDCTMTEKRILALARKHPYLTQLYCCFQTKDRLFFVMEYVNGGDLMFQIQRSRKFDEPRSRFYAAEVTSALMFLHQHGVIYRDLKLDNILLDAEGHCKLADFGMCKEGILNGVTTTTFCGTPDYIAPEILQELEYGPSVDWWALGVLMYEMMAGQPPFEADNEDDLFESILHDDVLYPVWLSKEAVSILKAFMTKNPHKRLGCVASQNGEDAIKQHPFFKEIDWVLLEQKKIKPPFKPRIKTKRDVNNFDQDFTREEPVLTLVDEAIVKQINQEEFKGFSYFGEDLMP
Method in brief: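 Read-out was fluorescence-polarization competition between phosphorylated substrate and a rhodamine PKC tracer for an anti-phosphoserine antibody, added with EDTA stop after an 80 min room-temperature kinase reaction with ATP and protein substrate (Mg2+/Ca2+ buffer). Enzyme (10 ng/ml final) was preincubated with compound for 30 min.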

T1 sequence (O75116 11-552 limits assumed): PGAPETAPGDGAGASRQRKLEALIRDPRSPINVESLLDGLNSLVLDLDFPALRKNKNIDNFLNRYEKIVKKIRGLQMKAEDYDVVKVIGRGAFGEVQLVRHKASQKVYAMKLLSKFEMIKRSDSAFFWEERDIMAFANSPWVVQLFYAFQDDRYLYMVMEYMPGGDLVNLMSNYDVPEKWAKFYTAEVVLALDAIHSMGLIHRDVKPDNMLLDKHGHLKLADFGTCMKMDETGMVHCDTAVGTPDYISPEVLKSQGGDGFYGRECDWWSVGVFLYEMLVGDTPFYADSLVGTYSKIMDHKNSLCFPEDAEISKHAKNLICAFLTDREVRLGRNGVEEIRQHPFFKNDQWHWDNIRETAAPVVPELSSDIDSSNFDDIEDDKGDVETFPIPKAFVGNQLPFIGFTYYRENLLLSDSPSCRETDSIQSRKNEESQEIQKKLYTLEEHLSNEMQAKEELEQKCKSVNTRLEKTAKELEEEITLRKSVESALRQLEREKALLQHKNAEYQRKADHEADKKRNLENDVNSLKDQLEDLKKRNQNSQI

Row | SMILES | IC50 [1] [µM] | IC50 [2] [µM]
1 | CN(CC(N)c1ccc(C(=O)Nc2ccncc2)cc1)C(=O)C1(c2ccc(F)c(F)c2)CCCC1 (centres unmarked) [Compound 488, 4-(1-Amino-2-{[1-(3,4-difluoro-phenyl)-cyclopentanecarbonyl]-methyl-amino}-ethyl)-N-pyridin-4-yl-benzamide] | 0.5 to 5 | 0.5 to 5
2 | CN(CC(N)c1ccc(C(=O)Nc2ccncc2)cc1)C(=O)Cc1ccc(Cl)cc1Cl (centres unmarked) [Compound 490, 4-(1-Amino-2-{[2-(2,4-dichloro-phenyl)-acetyl]-methyl-amino}-ethyl)-N-pyridin-4-yl-benzamide] | 0.5 to 5 | 5 to 50
3 | CN(CC(N)c1ccc(C(=O)Nc2ccncc2)cc1)C(=O)Cc1ccc(Cl)c(Cl)c1 (centres unmarked) [Compound 491, 4-(1-Amino-2-{[2-(3,4-dichloro-phenyl)-acetyl]-methyl-amino}-ethyl)-N-pyridin-4-yl-benzamide] | 0.5 to 5 | 5 to 50
4 | CN(CC(N)c1ccc(C(=O)Nc2ccncc2)cc1)C(=O)C1(c2ccc(Cl)c(Cl)c2)CC1 (centres unmarked) [Compound 493, 4-(1-Amino-2-{[1-(3,4-dichloro-phenyl)-cyclopropanecarbonyl]-methyl-amino}-ethyl)-N-pyridin-4-yl-benzamide] | 0.5 to 5 | 5 to 50
5 | CN(CC(N)c1ccc(C(=O)Nc2ccncc2)cc1)C(=O)C1(c2ccc(Cl)c(Cl)c2)CCC1 (centres unmarked) [Compound 494, 4-(1-Amino-2-{[1-(3,4-dichloro-phenyl)-cyclobutanecarbonyl]-methyl-amino}-ethyl)-N-pyridin-4-yl-benzamide] | 0.5 to 5 | 5 to 50
6 | CN(CC(N)c1ccc(C(=O)Nc2ccncc2)cc1)C(=O)C1(c2ccc(Cl)cc2Cl)CC1 (centres unmarked) [Compound 495, 4-(1-Amino-2-{[1-(2,4-dichloro-phenyl)-cyclopropanecarbonyl]-methyl-amino}-ethyl)-N-pyridin-4-yl-benzamide] | 0.5 to 5 | 5 to 50
7 | CN(CC(N)c1ccc(C(=O)Nc2ccncc2)cc1)C(=O)Cc1c(F)cccc1Cl (centres unmarked) [Compound 496, 4-(1-Amino-2-{[2-(2-chloro-6-fluoro-phenyl)-acetyl]-methyl-amino}-ethyl)-N-pyridin-4-yl-benzamide] | 0.5 to 5 | 5 to 50
8 | CN(CC(N)c1ccc(C(=O)Nc2ccncc2)cc1)C(=O)Cc1ccc(F)cc1Cl (centres unmarked) [Compound 498, 4-(1-Amino-2-{[2-(2-chloro-4-fluoro-phenyl)-acetyl]-methyl-amino}-ethyl)-N-pyridin-4-yl-benzamide] | 0.5 to 5 | 5 to 50
9 | CN(CC(N)c1ccc(C(=O)Nc2ccncc2)cc1)C(=O)Cc1cccc(Cl)c1F (centres unmarked) [Compound 501, 4-(1-Amino-2-{[2-(3-chloro-2-fluoro-phenyl)-acetyl]-methyl-amino}-ethyl)-N-pyridin-4-yl-benzamide] | 0.5 to 5 | 5 to 50
10 | CN(CC(N)c1ccc(C(=O)Nc2ccncc2)cc1)C(=O)Cc1ccc(Cl)cc1F (centres unmarked) [Compound 502, 4-(1-Amino-2-{[2-(4-chloro-2-fluoro-phenyl)-acetyl]-methyl-amino}-ethyl)-N-pyridin-4-yl-benzamide] | 0.5 to 5 | 5 to 50
11 | CN(CC(N)c1ccc(C(=O)Nc2ccncc2)cc1)C(=O)C1(c2ccc(Cl)cc2F)CC1 (centres unmarked) [Compound 504, 4-(1-Amino-2-{[1-(4-chloro-2-fluoro-phenyl)-cyclopropanecarbonyl]-methyl-amino}-ethyl)-N-pyridin-4-yl-benzamide] | 0.5 to 5 | 0.5 to 5
12 | CN(CC(N)c1ccc(C(=O)Nc2ccncc2)cc1)C(=O)C(C)(C)c1ccc(F)c(Cl)c1 (centres unmarked) [Compound 505, 4-(1-Amino-2-{[2-(3-chloro-4-fluoro-phenyl)-2-methyl-propionyl]-methyl-amino}-ethyl)-N-pyridin-4-yl-benzamide] | 0.5 to 5 | 5 to 50
13 | CN(CC(N)c1ccc(C(=O)Nc2ccncc2)cc1)C(=O)C1(c2ccc(F)c(Cl)c2)CC1 (centres unmarked) [Compound 506, 4-(1-Amino-2-{[1-(3-chloro-4-fluoro-phenyl)-cyclopropanecarbonyl]-methyl-amino}-ethyl)-N-pyridin-4-yl-benzamide] | 0.5 to 5 | 5 to 50
14 | CN(CC(N)c1ccc(C(=O)Nc2ccncc2)cc1)C(=O)C1CCCc2ccccc21 (centres unmarked) [Compound 512, 1,2,3,4-Tetrahydro-naphthalene-1-carboxylic acid {2-amino-2-[4-(pyridin-4-ylcarbamoyl)-phenyl]-ethyl}-methyl-amide] | 0.5 to 5 | 5 to 50
15 | CN(CC(N)c1ccc(C(=O)Nc2ccncc2)cc1)C(=O)C1CCOc2ccc(Cl)cc21 (centres unmarked) [Compound 515, 6-Chloro-chroman-4-carboxylic acid {2-amino-2-[4-(pyridin-4-ylcarbamoyl)-phenyl]-ethyl}-methyl-amide] | 0.5 to 5 | 5 to 50
16 | CN(CC(N)c1ccc(C(=O)Nc2ccncc2)cc1)C(=O)C1CCOc2ccc(F)cc21 (centres unmarked) [Compound 516, 6-Fluoro-chroman-4-carboxylic acid {2-amino-2-[4-(pyridin-4-ylcarbamoyl)-phenyl]-ethyl}-methyl-amide] | 0.5 to 5 | 5 to 50
17 | CN(CC(N)c1ccc(C(=O)Nc2ccncc2)cc1)C(=O)C1CCSc2ccccc21 (centres unmarked) [Compound 517, Thiochroman-4-carboxylic acid {2-amino-2-{4-(pyridin-4-ylcarbamoyl)-phenyl]-ethyl}-methyl-amide] | 5 to 50 | 5 to 50
18 | CN(CC(N)c1ccc(C(=O)Nc2ccncc2)cc1)C(=O)C1CCSc2ccc(F)cc21 (centres unmarked) [Compound 518, 6-Fluoro-thiochroman-4-carboxylic acid {2-amino-2-[4-(pyridin-4-ylcarbamoyl)-phenyl]-ethyl}-methyl-amide] | 5 to 50 | 5 to 50
19 | CN(CC(N)c1ccc(C(=O)Nc2ccncc2)cc1)C(=O)C1CCCc2sccc21 (centres unmarked) [Compound 520, 4,5,6,7-Tetrahydro-benzo[b]thiophene-4-carboxylic acid {2-amino-2-[4-(pyridin-4-ylcarbamoyl)-phenyl]-ethyl}-methyl-amide] | 0.5 to 5 | 5 to 50
20 | NC(c1ccc(C(=O)Nc2ccncc2)cc1)C1CCCN1C(=O)Cc1ccccc1 (centres unmarked) [Compound 521, 4-[Amino-(1-phenylacetyl-pyrrolidin-2-yl)-methyl]-N-pyridin-4-yl-benzamide] | 0.05 to 0.5 | 0.5 to 5
21 | Cc1cccc(CC(=O)N2CCCC2C(N)c2ccc(C(=O)Nc3ccncc3)cc2)c1 (centres unmarked) [Compound 524, 4-{Amino-[1-(2-m-tolyl-acetyl)-pyrrolidin-2-yl]-methyl}-N-pyridin-4-yl-benzamide] | 0.5 to 5 | 5 to 50
22 | Cc1ccc(CC(=O)N2CCCC2C(N)c2ccc(C(=O)Nc3ccncc3)cc2)cc1 (centres unmarked) [Compound 525, 4-{Amino-[1-(2-p-tolyl-acetyl)-pyrrolidin-2-yl]-methyl}-N-pyridin-4-yl-benzamide] | 0.5 to 5 | 0.5 to 5
23 | COc1ccccc1CC(=O)N1CCCC1C(N)c1ccc(C(=O)Nc2ccncc2)cc1 (centres unmarked) [Compound 526, 4-(Amino-{1-[2-(2-methoxy-phenyl)-acetyl]-pyrrolidin-2-yl]-methyl}-N-pyridin-4-yl-benzamide] | 0.5 to 5 | 5 to 50
24 | COc1cccc(CC(=O)N2CCCC2C(N)c2ccc(C(=O)Nc3ccncc3)cc2)c1 (centres unmarked) [Compound 527, 4-(Amino-{1-[2-(3-methoxy-phenyl)-acetyl]-pyrrolidin-2-yl}-methyl)-N-pyridin-4-yl-benzamide] | 0.5 to 5 | 0.5 to 5
25 | COc1ccc(CC(=O)N2CCCC2C(N)c2ccc(C(=O)Nc3ccncc3)cc2)cc1 (centres unmarked) [Compound 528, 4-(Amino-{1-[2-(4-methoxy-phenyl)-acetyl]-pyrrolidin-2-yl}-methyl)-N-pyridin-4-yl-benzamide] | 0.05 to 0.5 | 0.5 to 5
26 | COc1ccc(C2(C(=O)N3CCCC3C(N)c3ccc(C(=O)Nc4ccncc4)cc3)CC2)cc1 (centres unmarked) [Compound 529, 4-(Amino-{1-[1-(4-methoxy-phenyl)-cyclopropanecarbonyl]-pyrrolidin-2-yl}-methyl)-N-pyridin-4-yl-benzamide] | 0.5 to 5 | 0.5 to 5
27 | COc1ccc(C2(C(=O)N3CCCC3C(N)c3ccc(C(=O)Nc4ccncc4)cc3)CCCC2)cc1 (centres unmarked) [Compound 530, 4-(Amino-{1-[1-(4-methoxy-phenyl)-cyclopentanecarbonyl]-pyrrolidin-2-yl}-methyl)-N-pyridin-4-yl-benzamide] | 0.5 to 5 | 0.5 to 5
28 | COc1ccc(CC(=O)N2CCCC2C(N)c2ccc(C(=O)Nc3ccncc3)cc2)c(OC)c1 (centres unmarked) [Compound 531, 4-(Amino-{1-[2-(2,4-dimethoxy-phenyl)-acetyl]-pyrrolidin-2-yl}-methyl)-N-pyridin-4-yl-benzamide] | 0.5 to 5 | 0.5 to 5
